Data reported in patent publication US11104683B2, “Thioglycoluril compound, and method for producing same” (NISSAN CHEMICAL CORPORATION, priority 2016, dated 2021).

Test: Solubility in solvents (PGME or PGMEA) commonly used in semiconductor device production
Type: physicochemical
Conditions: for Solubility (g/100 g-PGMEA): solvent propylene glycol 1-monomethyl ether 2-acetate (PGMEA); for Solubility (g/100 g-PGME): solvent propylene glycol 1-monomethyl ether (PGME)
Description: In order to examine the solubilities of TMOM-TGU produced in Example 2, TMOM-DTGU produced in Example 4, and TMOM-GU as Comparative Example, these compounds were dissolved in propylene glycol 1-monomethyl ether (PGME) or propylene glycol 1-monomethyl ether 2-acetate (PGMEA), each of which is a solvent commonly used in, for example, production processes for semiconductor devices.

| Structure (SMILES) | Solubility (g/100 g-PGMEA) | Solubility (g/100 g-PGME) | solubility in a solvent (in words) (conclusion from Table 1 (PGME, PGMEA)) |
| --- | --- | --- | --- |
| COCN1C(=O)N(COC)C2C1N(COC)C(=O)N2COC (stereo not shown) [Comparative Example, 1,3,4,6-tetrakis(methoxymethyl)glycoluril, reference compound] | 12.5 g/100 g-PGMEA | 20 g/100 g-PGME | – |
| COCN1C(=O)N(COC)C2C1N(COC)C(=S)N2COC (stereo not shown) [Example 2, 1,3,4,6-tetrakis(methoxymethyl)monothioglycoluril] | 100 g/100 g-PGMEA | 100 g/100 g-PGME | particularly excellent solubility |
| COCN1C(=S)N(COC)C2C1N(COC)C(=S)N2COC (stereo not shown) [Example 4, 1,3,4,6-tetrakis(methoxymethyl)dithioglycoluril] | 25 g/100 g-PGMEA | 20 g/100 g-PGME | – |
